In one assay the test system is CD69 expression on PBMCs. Put plainly: CD69 expression by flow cytometry on PBMCs from healthy donors. Format: cell-based, human. The text has this:
As discussed earlier, an ideal combination of latency‐reversing compounds would reverse HIV‐1 latency in a broad spectrum of infected cells, without causing global T‐cell activation. Accordingly, we examined the effects of PH02 and PEP005 on T‐cell activation and toxicity on primary cells (PBMCs) isolated from healthy donors. […] Consequently, we examined the effect of lower concentrations of PEP005, alone and in combination with PH02 on these primary cells. […] Based on these observations, we expected that 1 nM PEP005 in combination with PH02 should produce negligible toxicity, and have minimal effects on T‐cell activation, while being capable of causing significant reversal of HIV latency (Fig 4F, Appendix Fig S2B).
Figure 9 Effect of PH02 in combination with PEP005 on T‐cell activation Expression of CD69 on PBMCs from three healthy donors (A, B, C; n = 3) was measured by flow cytometry following 24‐h treatment with 3 μM of PH02 alone or in combination with the indicated concentration of PEP005. Positive control samples were treated with PMA. Statistical significance, as determined by one‐way ANOVA, is indicated: *P < 0.05; **P < 0.005; ***P < 0.0005; ****P < 0.00005; ns, no significant difference. The exact P‐values are indicated in Appendix Table S1.
Luciferase assays were performed in 96‐well plate format, where 100 μl of cell culture containing 1 × 10^5 luciferase reporter cells was plated per well. After the indicated time of treatment, 100 μl of luciferase assay reagent (SuperlightTM luciferase reporter Gene Assay Kit; BioAssay Systems) was added per well, and incubated for 2 min at RT, when luciferase activity was measured on a VictorTM X3 Multilabel Plate Reader. Results were presented relative to the positive control samples treated with 50 nM PMA. T‐cell activation was measured using 1 × 10^5 wild‐type Jurkat^Tat cells or PBMCs purified from healthy donors, treated as indicated. After 24 h, cells were incubated with 2.4G2 antibody to block nonspecific binding and further stained with 5 μl of anti‐human CD69 or an IgG1 isotype control antibody conjugated with PE‐Cy^Tm7. After 30‐min incubation on ice, the cells were washed twice with PBS and analyzed using a Becton Dickinson LSRII flow cytometer (BD Biosciences) to determine mean fluorescence intensity (MFI), using FlowJo software. The mean fluorescence intensity (MFI) obtained from cells stained with IgG isotype antibody control was subtracted from that from cells stained with CD69 to compensate for background (MFICD69‐MFIIgG). IL‐2 production was measured in cell culture supernatants using a human IL‐2 ELISA System (eBioscience). […]

The subject of assay [1] is latent HIV‐1 provirus in CD4^+ T cells from aviremic HIV‐infected patients. Put plainly: Intracellular HIV‐1 mRNA in CD4+ T cells of aviremic patients. Format: cell-based. On the procedure: However, 1 nM PEP005 in combination with 1 μM PH02 produced a significant response that was double that produced by 1 μM PH02 on its own (Fig 10A). We confirmed this effect using a quantitative viral outgrowth assay (qVOA) with pools of CD4^+ T cells isolated from HIV‐1‐infected patient samples (Fig EV5, Appendix Table S5). […] We conclude that this combination of treatments may represent a promising candidate therapy to target persistent latent viral infection.
Figure 10 Effect of PH02 and PEP005 on expression of HIV provirus in latently infected cells from patients • Expression of intracellular HIV‐1 mRNA was determined from pools of CD4^+ T cells from aviremic HIV‐infected patients (n = 3, Appendix Table S4) following 24‐h treatment as indicated. Results are shown as fold induction relative to untreated controls. • Quantitative viral outgrowth assays (qVOA) were used to measure reactivation of HIV‐1 provirus from latency in pools of cells from patients. […] Data information: Statistical significance was determined by one‐way ANOVA and indicated as: *P < 0.05; **P < 0.005; ***P < 0.0005; ****P < 0.00005. […]
HIV‐1 RNA was measured from 1 × 10^6 resting CD4^+ T lymphocytes treated with 30 μM of each compound. […] RNA copy number was calculated using a standard curve generated from titrated infections with RGH‐PGK virus (Dahabieh et al, 2013). […]

Setting [2] is: 3 μM PH02 or 1 nM PEP005 alone, 24 h.

On to `C/C=C(/C)C(=O)O[C@H]1C(C)=C[C@]23C(=O)[C@@H](C=C(CO)[C@@H](O)[C@]12O)[C@H]1[C@@H](C[C@H]3C)C1(C)C` [PEP005, ingenol‐3‐angelate, reference compound], for which the CD69 induction entry in the assay on CD69 expression on PBMCs (setting [2]) is on record as “did not cause significant CD69 induction”. Besides, in the assay on CD69 expression on PBMCs (alone and in combination with 3 μM PH02, 24 h), the “PEP005 concentration causing CD69 expression at levels similar to PMA” value was “higher than 1 nM”. Besides, in assay [1] (1 nM PEP005 alone, 24 h), the “induction of viral RNA” value was “did not cause induction of viral RNA”.
Take `CC(=O)Oc1ccccc1N(C=C1Sc2ccccc2C1=O)C(C)=O` [PH02, 2‐{acetyl[(3‐oxo‐1‐benzothien‐2(3H)‐ylidene)methyl]amino}phenyl acetate]: the CD69 induction entry with CD69 expression on PBMCs (3 μM PH02 + 1 nM PEP005, 24 h) is on record as “did not cause significant CD69 induction”; in the assay with CD69 expression on PBMCs (setting [2]), “did not cause significant CD69 induction”. Moreover, the “response of combination relative to 1 μM PH02 on its own” value in assay [1] (1 μM PH02 + 1 nM PEP005, 24 h) is “double”.

The values are drawn from publication PMC5838563, “Compounds producing an effective combinatorial regimen for disruption of HIV‐1 latency” (EMBO Molecular Medicine, 2017).
